This note sets out measurements from ChEMBL document CHEMBL4177708, “N-Arylsulfonylsubstituted-1H indole derivatives as small molecule dual inhibitors of signal transducer and activator of transcription 3 (STAT3) and tubulin” (Bioorg Med Chem, 2018).

Activity calls are given as the source filed them. The rule behind the calls is not given here.

The test system of data set [1] is A549. Put plainly: […] of beta-tubulin polymerization in human A549 cells at 1 uM after 12 to 24 hrs by DAPI staining based confocal microscopic method. It is filed as cell-based.
The target of data set [2] is Signal transducer and activator of transcription 3 (Homo sapiens) (UniProt P40763). Put plainly: Inhibition of STAT3 phosphorylation at Tyr-705 residue in human MDA-MB-231 cells after 12 hrs by Western blot analysis. It counts as cell-based. (In general: A western blot detects proteins with antibodies after separation by electrophoresis.)
For data set [3] the target is unchanged. The experiment in a line: Inhibition of STAT3 phosphorylation at Tyr-705 residue in human MDA-MB-231 cells at 8 to 10 uM after 12 hrs by Western blot analysis. It counts as cell-based.
Data set [4] shares this target. The experiment in a line: Inhibition of IL-6-stimulated STAT3 phosphorylation at Tyr-705 residue in human MDA-MB-231 cells at 1 to 4 uM preincubated for 2 hrs followed by IL-6 stimulation measured after 30 mins by Western blot analysis. It is filed as cell-based.
Data set [5] is described as follows: Solubility of the compound in 0.1% DMSO. It counts as physicochemical.
The test system of data set [6] is A549. Put plainly: Inhibition of beta-tubulin polymerization in human A549 cells at 1 uM after 12 to 24 hrs by DAPI staining based confocal microscopic method. It is filed as cell-based.

Chain of Signal transducer and activator of transcription 3 (Homo sapiens) (P40763 whole entry): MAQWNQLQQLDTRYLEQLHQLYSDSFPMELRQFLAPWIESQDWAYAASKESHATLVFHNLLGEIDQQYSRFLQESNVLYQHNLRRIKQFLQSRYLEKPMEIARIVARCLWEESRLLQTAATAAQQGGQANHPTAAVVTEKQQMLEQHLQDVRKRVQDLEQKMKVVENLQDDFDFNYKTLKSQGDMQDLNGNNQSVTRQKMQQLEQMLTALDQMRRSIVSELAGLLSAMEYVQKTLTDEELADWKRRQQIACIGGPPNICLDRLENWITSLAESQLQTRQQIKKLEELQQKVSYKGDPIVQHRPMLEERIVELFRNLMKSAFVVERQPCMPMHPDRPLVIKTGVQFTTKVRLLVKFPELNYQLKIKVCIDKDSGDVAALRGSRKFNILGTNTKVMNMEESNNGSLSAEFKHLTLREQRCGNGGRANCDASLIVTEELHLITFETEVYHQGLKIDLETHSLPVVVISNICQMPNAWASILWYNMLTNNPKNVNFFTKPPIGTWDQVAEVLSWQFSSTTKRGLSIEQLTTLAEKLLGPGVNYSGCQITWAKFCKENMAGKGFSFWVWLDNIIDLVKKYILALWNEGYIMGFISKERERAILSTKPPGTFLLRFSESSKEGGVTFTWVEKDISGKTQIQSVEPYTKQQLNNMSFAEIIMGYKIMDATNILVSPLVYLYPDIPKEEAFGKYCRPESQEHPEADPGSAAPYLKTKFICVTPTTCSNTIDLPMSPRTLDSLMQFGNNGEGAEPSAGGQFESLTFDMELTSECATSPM

On to `CC(=O)O[C@H]1C(=O)[C@@]2(C)[C@H]([C@H](OC(=O)c3ccccc3)[C@]3(O)C[C@H](OC(=O)[C@H](O)[C@@H](NC(=O)c4ccccc4)c4ccccc4)C(C)=C1C3(C)C)[C@]1(OC(C)=O)CO[C@@H]1C[C@@H]2O`, for which the outcome in data set [1] was Active.
Regarding `COc1ccc(S(=O)(=O)n2ccc3cccc(Nc4ccc(C#N)c(F)c4)c32)cc1`, the inhibition entry in data set [2] was “Dose-dependent effect”.
Regarding `O=C(C1=Cc2cc(Br)ccc2S1(=O)=O)N1CCCCC1`, the inhibition result in data set [3] is “Active”.
With `COc1ccc(S(=O)(=O)n2ccc3cccc(-c4ccc(C#N)c(F)c4)c32)cc1`, the inhibition result in data set [4] was “Active”. In data set [2], the inhibition result is “Dose-dependent effect”.
In the case of `COc1ccc(S(=O)(=O)n2ccc3cccc(-c4ccc(S(C)(=O)=O)cc4)c32)cc1`, in data set [2], the inhibition result is “Dose-dependent effect”.
Consider `COc1ccc(S(=O)(=O)n2cc(Cl)c3cccc(-c4ccc(Cl)cc4)c32)cc1`, for which, in data set [5], the solubility result is reported as “Insoluble”.
On to `COc1cc2c(c(OC)c1OC)-c1ccc(OC)c(=O)cc1[C@@H](NC(C)=O)CC2`, for which, in data set [6], the inhibition entry was “Active”.
